In ChEMBL document CHEMBL5465560, “Selectivity Literature for EUbOPEN Chemogenomic Library” (2024):

How the values were obtained:
[1] = biological target: T1, Phosphatidylinositol 5-phosphate 4-kinase type-2 beta (Homo sapiens) (UniProt P78356); settings: at 10 µM
T1 sequence (whole entry): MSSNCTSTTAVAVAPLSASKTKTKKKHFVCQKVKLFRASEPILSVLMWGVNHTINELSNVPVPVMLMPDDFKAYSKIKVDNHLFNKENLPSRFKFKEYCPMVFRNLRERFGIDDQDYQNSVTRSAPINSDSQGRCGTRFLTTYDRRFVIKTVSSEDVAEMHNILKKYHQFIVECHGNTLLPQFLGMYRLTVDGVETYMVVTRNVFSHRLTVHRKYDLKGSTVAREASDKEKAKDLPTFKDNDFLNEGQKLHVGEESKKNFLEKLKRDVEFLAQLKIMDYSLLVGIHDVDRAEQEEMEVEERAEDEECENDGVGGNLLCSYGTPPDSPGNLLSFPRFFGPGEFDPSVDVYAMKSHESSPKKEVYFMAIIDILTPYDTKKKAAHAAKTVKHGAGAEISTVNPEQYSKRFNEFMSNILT

[2] = biological target: Serine/threonine-protein kinase WNK4 (Homo sapiens) (UniProt Q96J92); test: Selectivity interaction (KinomeScan (DiscoverX)) EUB0000229b WNK4; settings: at 10 µM
Sequence of Serine/threonine-protein kinase WNK4 (Homo sapiens) (Q96J92 whole entry): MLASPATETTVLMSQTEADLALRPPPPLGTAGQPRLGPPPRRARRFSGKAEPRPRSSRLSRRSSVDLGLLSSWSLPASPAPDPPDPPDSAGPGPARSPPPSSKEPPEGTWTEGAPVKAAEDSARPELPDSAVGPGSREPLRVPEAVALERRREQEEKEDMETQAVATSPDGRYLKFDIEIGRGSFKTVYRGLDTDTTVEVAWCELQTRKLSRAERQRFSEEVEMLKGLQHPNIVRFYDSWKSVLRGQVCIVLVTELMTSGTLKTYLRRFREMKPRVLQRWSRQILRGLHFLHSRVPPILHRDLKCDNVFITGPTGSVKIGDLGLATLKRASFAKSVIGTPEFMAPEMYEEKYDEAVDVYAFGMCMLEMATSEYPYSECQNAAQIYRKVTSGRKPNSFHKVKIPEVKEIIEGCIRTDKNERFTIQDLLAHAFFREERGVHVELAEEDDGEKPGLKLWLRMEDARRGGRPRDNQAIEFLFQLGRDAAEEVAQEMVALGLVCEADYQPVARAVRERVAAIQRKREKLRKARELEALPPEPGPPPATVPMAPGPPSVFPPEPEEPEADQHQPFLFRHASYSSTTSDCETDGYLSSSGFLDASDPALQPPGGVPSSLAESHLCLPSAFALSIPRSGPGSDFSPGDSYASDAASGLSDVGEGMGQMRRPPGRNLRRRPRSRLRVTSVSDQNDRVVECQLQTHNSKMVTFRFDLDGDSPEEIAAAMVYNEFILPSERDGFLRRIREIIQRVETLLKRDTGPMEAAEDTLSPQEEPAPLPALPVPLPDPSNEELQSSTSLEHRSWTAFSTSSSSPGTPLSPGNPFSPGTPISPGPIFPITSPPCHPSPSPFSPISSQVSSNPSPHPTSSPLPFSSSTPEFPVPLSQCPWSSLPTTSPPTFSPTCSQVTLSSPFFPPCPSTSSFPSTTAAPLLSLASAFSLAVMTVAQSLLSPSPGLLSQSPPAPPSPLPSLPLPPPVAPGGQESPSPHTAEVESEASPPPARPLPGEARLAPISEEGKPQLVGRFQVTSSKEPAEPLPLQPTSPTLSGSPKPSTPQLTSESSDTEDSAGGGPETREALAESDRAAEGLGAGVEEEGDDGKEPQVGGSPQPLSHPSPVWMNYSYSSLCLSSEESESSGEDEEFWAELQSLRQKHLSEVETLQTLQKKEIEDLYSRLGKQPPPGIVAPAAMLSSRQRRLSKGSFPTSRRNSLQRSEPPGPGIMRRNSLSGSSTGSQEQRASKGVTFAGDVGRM

[3] = biological target: T2, Cyclin-dependent kinase-like 2 (Homo sapiens) (UniProt Q92772); test: Selectivity interaction (KinomeScan (DiscoverX)) EUB0000092b CDKL2; settings: at 10 µM
T2 sequence (whole entry): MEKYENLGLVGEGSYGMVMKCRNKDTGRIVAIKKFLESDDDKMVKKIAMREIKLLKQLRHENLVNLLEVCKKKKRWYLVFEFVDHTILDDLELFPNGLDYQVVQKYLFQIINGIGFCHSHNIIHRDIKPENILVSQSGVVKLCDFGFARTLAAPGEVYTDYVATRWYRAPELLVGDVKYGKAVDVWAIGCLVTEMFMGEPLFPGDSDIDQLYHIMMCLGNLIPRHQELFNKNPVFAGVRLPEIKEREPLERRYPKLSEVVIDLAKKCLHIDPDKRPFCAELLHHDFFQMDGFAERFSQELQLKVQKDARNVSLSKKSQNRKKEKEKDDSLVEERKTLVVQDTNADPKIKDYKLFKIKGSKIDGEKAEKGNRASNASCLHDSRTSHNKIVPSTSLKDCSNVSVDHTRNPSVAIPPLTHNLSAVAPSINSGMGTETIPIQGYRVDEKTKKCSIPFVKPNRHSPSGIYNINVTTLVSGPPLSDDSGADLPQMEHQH

[4] = biological target: Ribosomal protein S6 kinase alpha-6 (Homo sapiens, UniProt Q9UK32); test: Selectivity interaction (KinomeScan (DiscoverX)) EUB0000045b RPS6KA6; settings: at 10 µM
Sequence of Ribosomal protein S6 kinase alpha-6 (Q9UK32 whole entry): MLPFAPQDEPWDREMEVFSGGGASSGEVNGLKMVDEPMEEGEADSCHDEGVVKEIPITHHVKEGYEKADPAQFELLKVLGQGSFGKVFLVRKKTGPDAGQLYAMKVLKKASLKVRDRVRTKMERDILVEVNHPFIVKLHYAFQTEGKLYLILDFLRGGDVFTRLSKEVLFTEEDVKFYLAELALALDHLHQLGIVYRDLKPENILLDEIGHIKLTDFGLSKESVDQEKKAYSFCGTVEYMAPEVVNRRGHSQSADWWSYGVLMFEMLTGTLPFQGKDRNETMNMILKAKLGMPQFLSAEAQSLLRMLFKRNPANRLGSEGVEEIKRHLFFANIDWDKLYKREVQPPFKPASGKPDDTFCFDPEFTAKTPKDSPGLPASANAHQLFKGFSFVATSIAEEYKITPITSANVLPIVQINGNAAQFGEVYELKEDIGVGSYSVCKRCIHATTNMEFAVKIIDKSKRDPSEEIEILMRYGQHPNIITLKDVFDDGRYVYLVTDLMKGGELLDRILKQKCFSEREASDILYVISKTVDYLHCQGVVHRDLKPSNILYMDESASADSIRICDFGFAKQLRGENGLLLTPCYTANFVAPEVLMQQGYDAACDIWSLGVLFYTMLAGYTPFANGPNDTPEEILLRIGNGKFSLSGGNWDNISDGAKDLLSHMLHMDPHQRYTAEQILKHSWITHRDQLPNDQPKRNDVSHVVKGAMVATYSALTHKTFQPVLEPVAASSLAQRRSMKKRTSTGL

[5] = biological target: Serine/threonine-protein kinase WNK2 (Homo sapiens) (UniProt Q9Y3S1); test: Selectivity interaction (ActivX KiNativ screen (ex vivo kinase selectivity in human PBMCs)) EUB0001619a WNK2; type: cell-based; settings: PBMC, at 1 µM
Sequence of Serine/threonine-protein kinase WNK2 (Homo sapiens) (Q9Y3S1 whole entry, canonical isoform): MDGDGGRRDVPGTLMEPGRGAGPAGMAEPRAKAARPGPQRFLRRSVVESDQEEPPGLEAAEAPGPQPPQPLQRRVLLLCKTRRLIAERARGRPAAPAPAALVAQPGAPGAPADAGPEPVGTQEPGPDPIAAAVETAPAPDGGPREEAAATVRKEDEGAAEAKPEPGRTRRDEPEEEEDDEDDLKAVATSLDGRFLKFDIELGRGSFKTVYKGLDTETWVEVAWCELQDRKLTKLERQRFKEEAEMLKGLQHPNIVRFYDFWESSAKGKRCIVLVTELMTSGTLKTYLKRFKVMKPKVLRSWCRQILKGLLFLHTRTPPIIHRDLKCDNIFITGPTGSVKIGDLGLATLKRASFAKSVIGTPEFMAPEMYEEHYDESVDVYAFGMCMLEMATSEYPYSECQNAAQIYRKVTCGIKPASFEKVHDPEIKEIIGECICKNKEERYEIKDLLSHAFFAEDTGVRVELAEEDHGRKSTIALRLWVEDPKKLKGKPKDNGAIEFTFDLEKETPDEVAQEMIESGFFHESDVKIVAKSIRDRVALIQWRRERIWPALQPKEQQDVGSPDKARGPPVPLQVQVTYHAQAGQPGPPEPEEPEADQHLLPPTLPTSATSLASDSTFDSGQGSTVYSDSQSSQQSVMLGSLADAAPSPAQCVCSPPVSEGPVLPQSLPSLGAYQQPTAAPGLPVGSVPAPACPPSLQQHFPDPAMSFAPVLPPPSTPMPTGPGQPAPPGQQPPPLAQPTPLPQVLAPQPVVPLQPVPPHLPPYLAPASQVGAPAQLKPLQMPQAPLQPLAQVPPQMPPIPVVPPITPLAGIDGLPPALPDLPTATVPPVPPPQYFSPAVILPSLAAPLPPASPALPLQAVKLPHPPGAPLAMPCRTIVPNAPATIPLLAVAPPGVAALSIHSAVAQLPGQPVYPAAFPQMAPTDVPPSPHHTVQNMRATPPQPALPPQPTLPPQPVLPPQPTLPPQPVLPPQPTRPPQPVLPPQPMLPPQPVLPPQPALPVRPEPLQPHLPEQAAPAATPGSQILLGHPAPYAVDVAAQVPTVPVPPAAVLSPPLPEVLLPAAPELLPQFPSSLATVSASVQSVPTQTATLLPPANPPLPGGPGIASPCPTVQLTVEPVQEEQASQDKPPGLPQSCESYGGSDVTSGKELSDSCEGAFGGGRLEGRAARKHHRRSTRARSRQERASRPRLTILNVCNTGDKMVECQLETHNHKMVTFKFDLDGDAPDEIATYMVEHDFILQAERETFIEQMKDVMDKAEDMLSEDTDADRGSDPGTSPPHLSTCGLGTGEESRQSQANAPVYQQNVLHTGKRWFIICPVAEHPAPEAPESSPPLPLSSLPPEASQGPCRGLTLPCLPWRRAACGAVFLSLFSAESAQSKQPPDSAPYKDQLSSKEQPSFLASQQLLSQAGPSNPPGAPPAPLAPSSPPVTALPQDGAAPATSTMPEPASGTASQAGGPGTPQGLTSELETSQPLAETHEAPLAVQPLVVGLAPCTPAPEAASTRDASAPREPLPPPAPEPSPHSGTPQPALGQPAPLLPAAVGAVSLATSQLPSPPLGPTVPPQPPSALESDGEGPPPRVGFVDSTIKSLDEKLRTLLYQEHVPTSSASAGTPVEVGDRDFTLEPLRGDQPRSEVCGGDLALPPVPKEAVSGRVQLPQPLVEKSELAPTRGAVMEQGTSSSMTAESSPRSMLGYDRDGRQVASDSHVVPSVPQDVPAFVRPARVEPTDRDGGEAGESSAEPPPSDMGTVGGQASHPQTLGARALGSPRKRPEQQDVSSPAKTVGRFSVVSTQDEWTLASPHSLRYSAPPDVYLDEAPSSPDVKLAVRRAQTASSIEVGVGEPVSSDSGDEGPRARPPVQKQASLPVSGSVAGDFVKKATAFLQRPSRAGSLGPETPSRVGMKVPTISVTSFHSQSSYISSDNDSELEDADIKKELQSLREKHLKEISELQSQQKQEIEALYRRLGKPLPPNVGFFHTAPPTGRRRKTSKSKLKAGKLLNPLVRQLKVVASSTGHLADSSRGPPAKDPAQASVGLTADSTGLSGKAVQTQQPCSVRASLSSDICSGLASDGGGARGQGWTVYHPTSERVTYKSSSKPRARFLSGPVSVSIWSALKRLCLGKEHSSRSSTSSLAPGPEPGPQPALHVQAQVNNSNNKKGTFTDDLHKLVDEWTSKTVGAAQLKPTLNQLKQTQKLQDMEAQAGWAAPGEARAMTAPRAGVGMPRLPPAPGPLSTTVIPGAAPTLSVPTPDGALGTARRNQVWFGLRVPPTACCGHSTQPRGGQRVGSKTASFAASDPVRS

[6] = biological target: Phosphorylase b kinase gamma catalytic chain, skeletal muscle/heart isoform (Homo sapiens) (UniProt Q16816); test: Selectivity interaction (KinomeScan (DiscoverX)) EUB0000607a PHKG1; settings: at 10 µM
Sequence of Phosphorylase b kinase gamma catalytic chain, skeletal muscle/heart isoform (Homo sapiens) (Q16816 whole entry, looked up, canonical isoform): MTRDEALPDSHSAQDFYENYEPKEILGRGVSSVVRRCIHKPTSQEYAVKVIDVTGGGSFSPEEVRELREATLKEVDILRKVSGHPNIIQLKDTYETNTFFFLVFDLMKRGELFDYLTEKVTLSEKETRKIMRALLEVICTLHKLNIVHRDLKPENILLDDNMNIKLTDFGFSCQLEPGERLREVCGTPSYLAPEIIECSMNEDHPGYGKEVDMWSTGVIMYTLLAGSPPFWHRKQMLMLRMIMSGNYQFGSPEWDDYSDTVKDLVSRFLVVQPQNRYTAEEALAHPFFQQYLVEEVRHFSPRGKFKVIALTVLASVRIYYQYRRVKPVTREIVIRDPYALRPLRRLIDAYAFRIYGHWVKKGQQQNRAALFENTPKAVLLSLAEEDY

[7] = biological target: T3, Mitogen-activated protein kinase kinase kinase 19 (Homo sapiens) (UniProt Q56UN5); test: Selectivity interaction (KinomeScan (DiscoverX)) EUB0000666a MAP3K19; settings: at 10 µM
T3 sequence (whole entry): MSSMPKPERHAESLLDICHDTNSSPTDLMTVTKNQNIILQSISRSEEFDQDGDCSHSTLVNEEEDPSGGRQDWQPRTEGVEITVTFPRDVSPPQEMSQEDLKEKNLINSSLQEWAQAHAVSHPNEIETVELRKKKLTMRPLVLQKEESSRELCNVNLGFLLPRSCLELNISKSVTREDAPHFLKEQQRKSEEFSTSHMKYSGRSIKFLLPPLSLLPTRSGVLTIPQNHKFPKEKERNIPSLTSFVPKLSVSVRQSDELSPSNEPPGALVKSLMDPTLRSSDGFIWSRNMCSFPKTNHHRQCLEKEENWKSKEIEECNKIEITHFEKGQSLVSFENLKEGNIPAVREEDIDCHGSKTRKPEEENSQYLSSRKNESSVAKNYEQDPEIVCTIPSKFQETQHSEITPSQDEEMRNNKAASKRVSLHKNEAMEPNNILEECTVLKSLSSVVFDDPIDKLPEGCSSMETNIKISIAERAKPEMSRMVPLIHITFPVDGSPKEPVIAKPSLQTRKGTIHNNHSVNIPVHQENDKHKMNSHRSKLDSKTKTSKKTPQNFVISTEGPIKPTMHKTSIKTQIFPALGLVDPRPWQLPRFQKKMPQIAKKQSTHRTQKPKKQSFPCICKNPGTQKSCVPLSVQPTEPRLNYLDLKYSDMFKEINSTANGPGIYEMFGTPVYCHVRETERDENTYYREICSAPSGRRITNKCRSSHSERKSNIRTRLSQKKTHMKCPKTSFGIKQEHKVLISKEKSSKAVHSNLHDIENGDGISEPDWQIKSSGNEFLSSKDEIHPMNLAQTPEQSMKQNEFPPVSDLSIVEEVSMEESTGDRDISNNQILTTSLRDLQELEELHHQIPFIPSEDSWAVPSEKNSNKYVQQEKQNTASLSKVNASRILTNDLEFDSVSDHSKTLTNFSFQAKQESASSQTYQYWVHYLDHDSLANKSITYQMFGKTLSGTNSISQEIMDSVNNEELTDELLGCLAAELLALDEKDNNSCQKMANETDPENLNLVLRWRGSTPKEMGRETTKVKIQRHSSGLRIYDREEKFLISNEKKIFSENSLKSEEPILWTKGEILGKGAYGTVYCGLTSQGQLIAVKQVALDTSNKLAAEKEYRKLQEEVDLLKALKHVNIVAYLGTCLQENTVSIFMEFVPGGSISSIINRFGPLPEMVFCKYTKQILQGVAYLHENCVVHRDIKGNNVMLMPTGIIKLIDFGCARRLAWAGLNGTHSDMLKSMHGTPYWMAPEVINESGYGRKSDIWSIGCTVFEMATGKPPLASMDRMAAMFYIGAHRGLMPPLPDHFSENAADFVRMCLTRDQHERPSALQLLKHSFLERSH

Cc1cc([C@@H](C)Nc2ccccc2C(=O)O)c2nc(N3CCOCC3)cc(=O)n2c1 [AZD-6482]
% of control [1]: 100%

COc1cc(N(C)c2ccnc3ccc(C(F)(F)F)cc23)cc(OC)c1OC
% binding [2]: 100%

CCC(=O)N1CCN(c2ccc(-n3c(=O)ccc4cnc5ccc(-c6cnc7ccccc7c6)cc5c43)cc2C(F)(F)F)CC1
% of control [3]: 58%

C=CC(=O)Nc1cc(-n2c(=O)ccc3cnc4ccc(-c5ccc(NS(C)(=O)=O)cc5)cc4c32)ccc1C
% of control [4]: 88%

N#Cc1cccc(-c2c[nH]c3ncnc(N4CCOCC4)c23)c1
% of inhibition [5]: -1%

CNC(=O)Nc1ccc(-c2nc(N3CC4CCC(C3)O4)c3cnn(C4CCC5(CC4)OCCO5)c3n2)cc1
% of control [6]: 100%

O=C(NOC[C@H](O)CO)c1ccc(F)c(F)c1Nc1ccc(I)cc1F
% of control [7]: 100%
